The record followed here is patent US20260125382A1, “COMPOUNDS FOR INHIBITING OR DEGRADING CDK2 AND/OR CDK9 AND MEDICINAL USE THEREOF” (KOREA RESEARCH INSTITUTE OF CHEMICAL TECHNOLOGY, priority 2022, published 2026).

Each structure is given as a SMILES string.

The target of one test is T1, CDK2 (Homo sapiens, UniProt P24941).
T1 construct: endogenous in cells; host or cells: MDA-MB-231
Description: CDK protein degradation activity (Western blotting), CDK2. Format: cell-based. The following applies: MDA-MB-231 cells, 16 hours, Western blot. In a few lines:
(§1)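 MDA-MB-231 cells were treated with compound at final concentrations of 100 nM, 1 μM and 10 μM, or DMSO vehicle, for 16 h. Lysates were resolved by SDS-PAGE and immunoblotted for CDK2, CDK9 and tubulin, with band intensities quantified densitometrically.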

A further test deals with T2, CDK9 (Homo sapiens, UniProt P50750).
T2 construct: endogenous in cells; host or cells: MDA-MB-231
T2 sequence (P50750 whole entry): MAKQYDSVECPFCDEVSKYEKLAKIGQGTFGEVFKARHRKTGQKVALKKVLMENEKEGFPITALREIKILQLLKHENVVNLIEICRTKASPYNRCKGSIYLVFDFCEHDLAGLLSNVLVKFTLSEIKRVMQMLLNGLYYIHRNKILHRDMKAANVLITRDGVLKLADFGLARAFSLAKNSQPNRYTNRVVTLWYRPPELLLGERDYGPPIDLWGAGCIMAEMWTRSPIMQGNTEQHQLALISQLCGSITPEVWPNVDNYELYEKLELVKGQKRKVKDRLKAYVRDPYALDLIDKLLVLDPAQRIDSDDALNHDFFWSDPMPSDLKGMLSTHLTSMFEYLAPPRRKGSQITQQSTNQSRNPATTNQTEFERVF
Nature of the test: CDK protein degradation activity (Western blotting), CDK9. Format: cell-based. The following applies: MDA-MB-231 cells, 16 hours, Western blot. The gist of the method: as §1
On the technique in general: In western blotting, separated proteins are transferred to a membrane and probed.

As for `O=C1CC[C@H](N2C(=O)c3ccc(N4CCC(CN5CCN(c6ccc(Nc7ncnc8c7ncn8[C@H]7C[C@@H](NC(=O)Cc8ccccc8)C7)cc6)CC5)CC4)cc3C2=O)C(=O)N1` [Compound 179, N-((1s,3s)-3-(6-((4-(4-((1-(2-(2,6-dioxopiperidin-3-yl)-1,3-dioxoisoindolin-5-yl)piperidin-4-yl)methyl)piperazin-1-yl)phenyl)amino)-9H-purin-9-yl)cyclobutyl)-2-phenylacetamide], at CDK2, the “Enzyme degradation CDK2 (% remaining) @ 0.1 μM” value is reported as 10%, the “Enzyme degradation CDK2 (% remaining) @ 1 μM” value is recorded as 0% and the “Enzyme degradation CDK2 (% remaining) @ 10 μM” value was 0%. At CDK9, the “Enzyme degradation CDK9 (% remaining) @ 0.1 μM” value was 10%, the “Enzyme degradation CDK9 (% remaining) @ 1 μM” value was determined as 0% and the “Enzyme degradation CDK9 (% remaining) @ 10 μM” value is recorded as 0%.

As to `O=C1CCC(N2C(=O)c3cccc(N4CCC(CN5CCC(CNc6ncnc7c6ncn7[C@H]6C[C@@H](NC(=O)Cc7ccccc7)C6)CC5)CC4)c3C2=O)C(=O)N1` (stereo partly drawn) [Compound 180, N-((1s,3s)-3-(6-(((1-((1-(2-(2,6-dioxopiperidin-3-yl)-1,3-dioxoisoindolin-4-yl)piperidin-4-yl)methyl)piperidin-4-yl)methyl)amino)-9H-purin-9-yl)cyclobutyl)-2-phenylacetamide], at CDK2, the “Enzyme degradation CDK2 (% remaining) @ 0.1 μM” value is 30/30/30%, the “Enzyme degradation CDK2 (% remaining) @ 1 μM” value is 30/30/30% and the “Enzyme degradation CDK2 (% remaining) @ 10 μM” value is recorded as 30/30/30%. Moreover, at CDK9, the “Enzyme degradation CDK9 (% remaining) @ 0.1 μM” value turned out to be 20%, the “Enzyme degradation CDK9 (% remaining) @ 1 μM” value was determined as 80% and the “Enzyme degradation CDK9 (% remaining) @ 10 μM” value was determined as 0%.

Take `O=C1CC[C@H](N2C(=O)c3ccc(N4CCC(CN5CCC(CNc6ncnc7c6ncn7C6CC(NC(=O)Cc7ccccc7)C6)CC5)CC4)cc3C2=O)C(=O)N1` (stereo partly drawn) [Compound 181, N-((1s,3s)-3-(6-(((1-((1-(2-(2,6-dioxopiperidin-3-yl)-1,3-dioxoisoindolin-5-yl)piperidin-4-yl)methyl)piperidin-4-yl)methyl)amino)-9H-purin-9-yl)cyclobutyl)-2-phenylacetamide]: on CDK2, the “Enzyme degradation CDK2 (% remaining) @ 0.1 μM” value turned out to be 40%, the “Enzyme degradation CDK2 (% remaining) @ 1 μM” value is 30% and the “Enzyme degradation CDK2 (% remaining) @ 10 μM” value came out at 50%. For the same compound, at CDK9, the “Enzyme degradation CDK9 (% remaining) @ 0.1 μM” value is reported as 50%, the “Enzyme degradation CDK9 (% remaining) @ 1 μM” value worked out at 40% and the “Enzyme degradation CDK9 (% remaining) @ 10 μM” value was 0%.

For `O=C1CC[C@H](N2C(=O)c3cccc(OCC(=O)N4CCC(CN5CCC(CNc6ncnc7c6ncn7C6CC(NC(=O)Cc7ccccc7)C6)CC5)CC4)c3C2=O)C(=O)N1` (stereo partly drawn) [Compound 182, N-((1s,3s)-3-(6-(((1-((1-(2-((2-(2,6-dioxopiperidin-3-yl)-1,3-dioxoisoindolin-4-yl)oxy)acetyl)piperidin-4-yl)methyl)piperidin-4-yl)methyl)amino)-9H-purin-9-yl)cyclobutyl)-2-phenylacetamide], on CDK2, the “Enzyme degradation CDK2 (% remaining) @ 0.1 μM” value turned out to be 70%, the “Enzyme degradation CDK2 (% remaining) @ 1 μM” value is 50% and the “Enzyme degradation CDK2 (% remaining) @ 10 μM” value is on record as 50%. Moreover, at CDK9, the “Enzyme degradation CDK9 (% remaining) @ 0.1 μM” value was 20%, the “Enzyme degradation CDK9 (% remaining) @ 1 μM” value is recorded as 10% and the “Enzyme degradation CDK9 (% remaining) @ 10 μM” value is 0%.

For the compound `O=C1CC[C@H](N2C(=O)c3cccc(NCC(=O)N4CCC(CN5CCC(CNc6ncnc7c6ncn7C6CC(NC(=O)Cc7ccccc7)C6)CC5)CC4)c3C2=O)C(=O)N1` (stereo partly drawn) [Compound 184, N-((1s,3s)-3-(6-(((1-((1-((2-(2,6-dioxopiperidin-3-yl)-1,3-dioxoisoindolin-4-yl)glycyl)piperidin-4-yl)methyl)piperidin-4-yl)methyl)amino)-9H-purin-9-yl)cyclobutyl)-2-phenylacetamide], at CDK2, the “Enzyme degradation CDK2 (% remaining) @ 0.1 μM” value is given as 70%, the “Enzyme degradation CDK2 (% remaining) @ 1 μM” value came out at 70% and the “Enzyme degradation CDK2 (% remaining) @ 10 μM” value was 50%. For the same compound, at CDK9, the “Enzyme degradation CDK9 (% remaining) @ 0.1 μM” value is 0/0/0%, the “Enzyme degradation CDK9 (% remaining) @ 1 μM” value is 0/0/0% and the “Enzyme degradation CDK9 (% remaining) @ 10 μM” value was 0/0/0%.

Take `O=C1CCC(N2C(=O)c3ccc(NCC(=O)N4CCC(CN5CCC(CNc6ncnc7c6ncn7[C@H]6C[C@@H](NC(=O)Cc7ccccc7)C6)CC5)CC4)cc3C2=O)C(=O)N1` (stereo partly drawn) [Compound 185, N-((1s,3s)-3-(6-(((1-((1-((2-(2,6-dioxopiperidin-3-yl)-1,3-dioxoisoindolin-5-yl)glycyl)piperidin-4-yl)methyl)piperidin-4-yl)methyl)amino)-9H-purin-9-yl)cyclobutyl)-2-phenylacetamide]: on CDK2, the “Enzyme degradation CDK2 (% remaining) @ 0.1 μM” value is 100/100/100%, the “Enzyme degradation CDK2 (% remaining) @ 1 μM” value was 100/100/100% and the “Enzyme degradation CDK2 (% remaining) @ 10 μM” value is on record as 100/100/100%. At CDK9, the “Enzyme degradation CDK9 (% remaining) @ 0.1 μM” value was 0/0/0%, the “Enzyme degradation CDK9 (% remaining) @ 1 μM” value is on record as 0/0/0% and the “Enzyme degradation CDK9 (% remaining) @ 10 μM” value is recorded as 0/0/0%.

In the case of `O=C1CCN(c2coc3cc(C(=O)N4CCC(CN5CCN(c6ccc(Nc7ncnc8c7ncn8[C@H]7C[C@@H](NC(=O)Cc8ccccc8)C7)cc6)CC5)CC4)ccc23)C(=O)N1` [Compound 187, N-((1s,3s)-3-(6-((4-(4-((1-(3-(2,4-dioxotetrahydropyrimidin-1(2H)-yl)benzofuran-6-carbonyl)piperidin-4-yl)methyl)piperazin-1-yl)phenyl)amino)-9H-purin-9-yl)cyclobutyl)-2-phenylacetamide], at CDK2, the “Enzyme degradation CDK2 (% remaining) @ 0.1 μM” value is listed as 30%, the “Enzyme degradation CDK2 (% remaining) @ 1 μM” value is on record as 10% and the “Enzyme degradation CDK2 (% remaining) @ 10 μM” value was 20%. Further, at CDK9, the “Enzyme degradation CDK9 (% remaining) @ 0.1 μM” value was 10%, the “Enzyme degradation CDK9 (% remaining) @ 1 μM” value was 0% and the “Enzyme degradation CDK9 (% remaining) @ 10 μM” value is 0%.

Consider `O=C1CC[C@H](N2C(=O)C=C(Nc3cccc(CC(=O)N4CCC(CN5CCN(c6ccc(Nc7ncnc8c7ncn8C7CC(NC(=O)Cc8ccccc8)C7)cc6)CC5)CC4)c3)C2=O)C(=O)N1` (stereo partly drawn) [Compound 188, N-((1s,3s)-3-(6-((4-(4-((1-(2-(3-((1-(2,6-dioxopiperidin-3-yl)-2,5-dioxo-2,5-dihydro-1H-pyrrol-3-yl)amino)phenyl)acetyl)piperidin-4-yl)methyl)piperazin-1-yl)phenyl)amino)-9H-purin-9-yl)cyclobutyl)-2-phenylacetamide], for which, on CDK2, the “Enzyme degradation CDK2 (% remaining) @ 0.1 μM” value amounted to 80%, the “Enzyme degradation CDK2 (% remaining) @ 1 μM” value stood at 70% and the “Enzyme degradation CDK2 (% remaining) @ 10 μM” value was 60%. At CDK9, the “Enzyme degradation CDK9 (% remaining) @ 0.1 μM” value is given as 20%, the “Enzyme degradation CDK9 (% remaining) @ 1 μM” value is on record as 20% and the “Enzyme degradation CDK9 (% remaining) @ 10 μM” value is reported as 10%.

In the case of `O=C1CC[C@H](N2C(=O)C=C(N3CCC(C(=O)N4CCC(CN5CCN(c6ccc(Nc7ncnc8c7ncn8[C@H]7C[C@@H](NC(=O)Cc8ccccc8)C7)cc6)CC5)CC4)CC3)C2=O)C(=O)N1` [Compound 189, N-((1s,3s)-3-(6-((4-(4-((1-(1-(1-(2,6-dioxopiperidin-3-yl)-2,5-dioxo-2,5-dihydro-1H-pyrrol-3-yl)piperidin-4-carbonyl)piperidin-4-yl)methyl)piperazin-1-yl)phenyl)amino)-9H-purin-9-yl)cyclobutyl)-2-phenylacetamide], on CDK2, the “Enzyme degradation CDK2 (% remaining) @ 0.1 μM” value is 30%, the “Enzyme degradation CDK2 (% remaining) @ 1 μM” value is listed as 20% and the “Enzyme degradation CDK2 (% remaining) @ 10 μM” value is recorded as 40%. On CDK9, the “Enzyme degradation CDK9 (% remaining) @ 0.1 μM” value was 0/0/0%, the “Enzyme degradation CDK9 (% remaining) @ 1 μM” value is given as 0/0/0% and the “Enzyme degradation CDK9 (% remaining) @ 10 μM” value is listed as 0/0/0%.
